Holding throughout (experiment): DTP human tumour cell line panel, 48 h
For assay [1], the system named is 786-0 renal.
Assay [2] has as its system A498 renal.
The test system of assay [3] is HCT-15 colon.
Assay [4] deals with KM12 colon.
Assay [5] has as its system LOX IMVI melanoma.
Assay [6] concerns MOLT-4 leukemia.
Assay [7] relates to SF-268 CNS.
Assay [8] deals with SNB-75 CNS.
In assay [9] the test system is MDA-MB-435.

SMILES strings stand for the structures.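 The compound was tested at five concentrations on cells cultured in 96-well plates, with a 48-hour exposure period. GI50 marks 50% less growth. Definition used: TGI = concentration required for complete inhibition of growth.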 Some results are limits rather than exact numbers.

Consider 16 molecules from PubChem BioAssay (NCI).

Broadly, the TGI is the concentration at which net growth stops. Lower therefore signals more potent growth arrest. For `CN1C(=O)C2C=CC1C1CCC2N(C)C1=O` (centres undefined), the TGI in assay [1], in [2], in [3], in assay [4], in assay [5] and in assay [6] was above 100 µM each time. The TGI in assay [7] and in assay [8] was above 100 µM each time.
In the case of `COC(=O)c1ccc(C(=O)OC)c2nc3cc(C)ccc3nc12`, the TGI in assay [1], in assay [2], in assay [3], in assay [4], in assay [5] and in [6] was above 100 µM each time. Besides, the total growth inhibition concentration (TGI) in assay [7] and in assay [8] was above 100 µM each time.
As for `COc1cc(/C=C/c2ccc(OC)c(OC)c2OC)cc(OC)c1OC`, the concentration for total growth inhibition (TGI) was 51.6 µM in [1]; above 73.9 µM in [2]; above 57.2 µM in assay [3]; 57.3 µM in assay [4]; 30.8 µM in [5]; above 62 µM in assay [6]. Moreover, the TGI in assay [7] is above 64.2 µM; in [8], 56.7 µM.
For `Cc1cccc(N=C2NC(=O)C(CC(=O)Nc3ccc(C)cc3C)S2)c1` (centres undefined), the TGI in assay [1], in assay [2], in assay [3], in assay [5], in assay [6] and in assay [7] was above 100 µM each time. This molecule registered a TGI in assay [8] above 100 µM.
With `ClCc1ccc(C2OCCO2)cc1`, the total growth inhibition concentration (TGI) in assay [1] worked out at 54.4 µM; in [2], 45.3 µM; in [3] it was 34.7 µM; in assay [4], 18.4 µM; in assay [5], 24.5 µM; in assay [6], 45.6 µM. In addition, the total growth inhibition concentration (TGI) was above 100 µM in assay [7] and 52.5 µM in assay [8].
Regarding `COC(=O)[C@H]1N[C@@H](C(=O)OC)C23CCC[C@H]2CC[C@]1(C(OC)OC)C3`, the TGI in [1], in [2], in [3], in assay [4], in assay [5] and in assay [6] was above 100 µM throughout. Moreover, the TGI in assay [7] and in assay [8] was above 100 µM throughout.
For the molecule `O=C(CSc1nc(-c2ccccc2)c(-c2ccccc2)[nH]1)NNC(=S)Nc1ccccc1`, the TGI in assay [1], in assay [2], in assay [3], in [4], in assay [5] and in assay [6] was above 100 µM each time. Further, the TGI in assay [7] and in assay [8] was above 100 µM throughout.
Usually GI50 stands for the concentration that inhibits growth by half. `O=c1cc(-c2ccccn2)[nH]c2cc(F)ccc12`: the total growth inhibition concentration (TGI) in [1], in [4], in assay [5], in [6], in assay [7] and in assay [8] was above 100 µM each time. In assay [7], the GI50 is 29.5 µM.
For the molecule `CC(/C=C/NNC1=NC(c2ccccc2)C(c2ccccc2)=NN1)Sc1ccccc1N` (centres undefined), the TGI in assay [1] is 13.6 µM; in assay [2], 26.6 µM; in assay [3], 19.8 µM; in assay [4], 21.8 µM; in [5], 11.4 µM; in assay [6], 34 µM. Further, the results for the TGI in assay [7] and in [8] were 16 µM and 14 µM, respectively.
As to `C[C@]12CC[C@H]3[C@@H](CC[C@]4(O)C[C@@H](O)CC[C@]34CO)[C@@]1(O)CC[C@@H]2C1=CC(=O)OC1`, the TGI in [1] was 11.7 µM; in assay [2] it was 5.1 µM; in [3], 4.72 µM; in assay [4] it was 17 µM; in [5], 8.19 µM; in [9], 9.45 µM. Besides, the TGI is 0.726 µM in assay [6], 3.25 µM in assay [7] and 34.3 µM in assay [8].
On to `CC1=NOC(=O)C1N=Nc1ccc(Br)c(C)c1` (centres undefined), for which the concentration for total growth inhibition (TGI) in [1] was 38.8 µM; in assay [2] it was 36.2 µM; in assay [3], 41.6 µM; in [4], 78 µM; in [6], 45.3 µM; in assay [7], 47.6 µM. The molecule further showed a TGI in assay [8] of 60.5 µM.
Take `N#Cc1c(C[n+]2ccccc2)c2ccccc2oc1=O`: the total growth inhibition concentration (TGI) in assay [1], in [3], in [4], in assay [5], in assay [6] and in assay [7] was above 100 µM throughout. For the same molecule, the concentration for total growth inhibition (TGI) in [8] is above 100 µM.
As for `CCOC(=O)c1c(-c2ccccc2)c(C(OC(c2ccccc2)c2c(-c3ccccc3)c(C(=O)OCC)n3ccccc23)c2ccccc2)c2ccccn12` (centres undefined), the concentration for total growth inhibition (TGI) in [1], in assay [3], in assay [4], in assay [5], in assay [6] and in assay [7] was above 100 µM in each case. This molecule gave a total growth inhibition concentration (TGI) in [8] above 100 µM.
Turning to `COc1ccc2ccccc2c1CN1CCOCCOCCN(Cc2c(OC)ccc3ccccc23)CCOCCOCC1`, the TGI in [1] is above 46.4 µM; in assay [2], above 100 µM; in assay [3], above 100 µM; in assay [4] it was above 100 µM; in [5], above 100 µM; in assay [6] it was above 90.1 µM. For the same molecule, the TGI in assay [7] and in assay [8] was above 100 µM in each case.
Take `COC(=O)[C@]1(C)C(OC)=CC(=O)C2C1[C@H]1CCC[C@@H]21` (some centres undefined): the TGI in assay [1], in assay [2], in assay [3], in [4], in [5] and in assay [6] was above 100 µM throughout. Also, the TGI in assay [7] and in assay [8] was above 100 µM in each case.
On to `S=P(N1CCCC1)(N1CC1)N1CC1`, for which the concentration for total growth inhibition (TGI) in [1], in [2], in assay [3], in assay [4], in assay [5] and in assay [6] was above 100 µM in each case. Moreover, the concentration for total growth inhibition (TGI) in assay [7] and in assay [8] was above 100 µM throughout.
